Source: patent publication US8916702B2 (priority 2012, dated 2014)

Test system: HCV pseudoparticles (genotype 1a HCV E1 and E2 envelope, H77C isolate)
Assay: microbe, parasite or virus in culture
Type: cell-based
Conditions: Hepatitis C virus, Huh-7, 48 h, HCV pseudoparticles (genotype 1a, H77C) in Huh7 cells; average of duplicate; luciferase 2 days after infection

| Structure (SMILES) | EC50 |
| --- | --- |
| CC1CC(=O)c2ccc(NC(=O)C(=O)NCC(C)(C)CNC(=O)c3ccc(Nc4nc(NC5(c6ccc(Cl)cc6)CC5)nc(OCC(F)(F)F)n4)cc3)cc2O1 (centres unmarked) [Compound 3336] | 0.09 nM |
| O=C(NCC[C@H](NC(=O)c1ccc(Nc2nc(NC3(c4ccc(Cl)cc4)CC3)nc(OCC(F)(F)F)n2)cc1)C(=O)O)C(=O)Nc1ccc(Cn2ccnc2)cc1 [Compound 3540] | 26.2 nM |

Same assay, conditions: Hepatitis C virus, Huh-7, 48 h, read-out: Activity (EC50 class), HCV pseudoparticle infection of Huh7 cells, luciferase 2 days after infection; EC50 expressed as class A/B

| Structure (SMILES) | EC50 |
| --- | --- |
| O=C(NC[C@H](NC(=O)c1ccc(Nc2nc(NC3(c4ccc(Cl)cc4)CC3)nc(OCC(F)(F)F)n2)cc1)C(=O)O)C(=O)NC1(C2CCCCC2)CC1 [Compound 1472] | 0.01 to 10 nM |
| COC(=O)[C@H](CNC(=O)C(=O)NC1Cc2ccccc2C1)NC(=O)c1ccc(Nc2nc(NC3(c4ccc(Cl)cc4)CC3)nc(OCC(F)(F)F)n2)cc1 [Compound 1291] | 0.01 to 10 nM |
| COC(=O)[C@H](CCNC(=O)C(=O)Nc1nccn1C)NC(=O)c1ccc(Nc2nc(NC3(c4ccc(Cl)cc4)CC3)nc(OCC(F)(F)F)n2)cc1 [Compound 1222] | 0.01 to 10 nM |
| COC(=O)[C@H](CNC(=O)C(=O)NC(C)(C)Cc1ccc(F)cc1)NC(=O)c1ccc(Nc2nc(NC3(c4ccc(Cl)cc4)CC3)nc(OCC(F)(F)F)n2)cc1 [Compound 1296] | 0.01 to 10 nM |
| O=C(NCCc1cccc(F)c1)C(=O)NCC[C@H](NC(=O)c1ccc(Nc2nc(NC3(c4ccc(Cl)cc4)CC3)nc(OCC(F)(F)F)n2)cc1)C(=O)O [Compound 1333] | 0.01 to 10 nM |
| CN(C)C(=O)C(=O)NC[C@H](NC(=O)c1ccc(Nc2nc(NC3(c4ccc(Cl)cc4)CC3)nc(OCC(F)(F)F)n2)cc1)C(=O)O [Compound 1007, (S)-2-(4-(4-(1-(4-chlorophenyl)cyclopropylamino)-6-(2,2,2-trifluoroethoxy)-1,3,5-triazin-2-ylamino)benzamido)-3-(2-(dimethylamino)-2-oxoacetamido)propanoic acid] | 0.01 to 10 nM |
| O=C(NCC[C@H](NC(=O)c1ccc(Nc2nc(NC3(c4ccc(Cl)cc4)CC3)nc(OCC(F)(F)F)n2)cc1)C(=O)O)C(=O)NCC1(CO)CC1 [Compound 1424] | 0.01 to 10 nM |
| O=C(NCC[C@@H](NC(=O)c1ccc(Nc2nc(NC3(c4ccc(Cl)cc4)CC3)nc(OCC(F)(F)F)n2)cc1)C(=O)O)C(=O)Nc1ccc(F)c(F)c1F [Compound 1538] | 0.01 to 10 nM |
| COc1ccc(CNC(=O)C(=O)NCC[C@H](NC(=O)c2ccc(Nc3nc(NC4(c5ccc(Cl)cc5)CC4)nc(OCC(F)(F)F)n3)cc2)C(=O)O)c(OC)c1 [Compound 1194] | 0.01 to 10 nM |
| O=C(NCC[C@H](NC(=O)c1ccc(Nc2nc(NC3(c4ccc(Cl)cc4)CC3)nc(OCC(F)(F)F)n2)cc1)C(=O)O)C(=O)N[C@H]1C[C@H]1c1ccccc1 [Compound 1338] | 0.01 to 10 nM |
| COc1ncccc1NC(=O)C(=O)NCC[C@H](NC(=O)c1ccc(Nc2nc(NC3(c4ccc(Cl)cc4)CC3)nc(OCC(F)(F)F)n2)cc1)C(=O)O [Compound 1261] | 0.01 to 10 nM |
| COC(=O)[C@H](CCNC(=O)C(=O)NCc1ccc(F)c(F)c1)NC(=O)c1ccc(Nc2nc(NC3(c4ccc(Cl)cc4)CC3)nc(OCC(F)(F)F)n2)cc1 [Compound 1159] | 0.01 to 10 nM |
| CN(C(=O)C(=O)NCC(C)(C)CNC(=O)c1ccc(Nc2nc(NC3(c4ccc(Cl)cc4)CC3)nc(OCC(F)(F)F)n2)cc1)c1ccc(F)cc1 [Compound 1599] | 0.01 to 10 nM |
| COC(=O)[C@H](CNC(=O)C(=O)NCCc1cccc(F)c1)NC(=O)c1ccc(Nc2nc(NC3(c4ccc(Cl)cc4)CC3)nc(OCC(F)(F)F)n2)cc1 [Compound 1289] | 0.01 to 10 nM |

Same assay, conditions: Hepatitis C virus, Huh-7, 48 h, read-out: Activity (EC50 class), HCV pseudoparticles, Huh7 cells, luciferase 2 days after infection; average of duplicates

| Structure (SMILES) | EC50 |
| --- | --- |
| COC(=O)[C@H](CCNC(=O)C(=O)Nc1cccc(-n2ccnc2)c1)NC(=O)c1ccc(Nc2nc(NC3(c4ccc(Cl)cc4)CC3)nc(OCC(F)(F)F)n2)cc1 [Compound 3610] | 0.01 to 10 nM |
| COC(=O)[C@H](CNC(=O)C(=O)Nc1ccc(N)nc1)NC(=O)c1ccc(Nc2nc(NC3(c4ccc(Cl)cc4)CC3)nc(OCC(F)(F)F)n2)cc1 [Compound 3705] | 0.01 to 10 nM |
| Cc1ccc2sc(NC(=O)C(=O)NCC(C)(C)CNC(=O)c3ccc(Nc4nc(NC5(c6ccc(Cl)cc6)CC5)nc(OCC(F)(F)F)n4)cc3)nc2c1 [Compound 3818] | 0.01 to 10 nM |
| O=C(NC[C@H](NC(=O)c1ccc(Nc2nc(NC3(c4ccc(Cl)cc4)CC3)nc(OCC(F)(F)F)n2)cc1)C(=O)Cl)C(=O)Nc1cccc(-c2cccnc2)c1 [Compound 3783] | 0.01 to 10 nM |
| COC(=O)[C@H](CNC(=O)C(=O)Nc1cccc(C(=O)Nc2ccccc2)c1)NC(=O)c1ccc(Nc2nc(NC3(c4ccc(Cl)cc4)CC3)nc(OCC(F)(F)F)n2)cc1 [Compound 3691] | 0.01 to 10 nM |
| COC(=O)[C@H](CNC(=O)C(=O)Nc1cccc(OC(F)(F)F)c1)NC(=O)c1ccc(Nc2nc(NC3(c4ccc(Cl)cc4)CC3)nc(OCC(F)(F)F)n2)cc1 [Compound 3693] | 0.01 to 10 nM |
| CC(=O)Nc1ccc(NC(=O)C(=O)NCC[C@H](NC(=O)c2ccc(Nc3nc(NC4(c5ccc(Cl)cc5)CC4)nc(OCC(F)(F)F)n3)cc2)C(=O)O)cn1 [Compound 3631] | 0.01 to 10 nM |
| Cc1nccc(-c2cccc(NC(=O)C(=O)NC[C@H](NC(=O)c3ccc(Nc4nc(NC5(c6ccc(Cl)cc6)CC5)nc(OCC(F)(F)F)n4)cc3)C(=O)O)c2)n1 [Compound 3756] | 0.01 to 10 nM |
| Cc1ccc(NC(=O)C(=O)NCC(C)(C)CNC(=O)c2ccc(Nc3nc(NC4(c5ccc(Cl)cc5)CC4)nc(OCC(F)(F)F)n3)cc2)cc1C [Compound 3799] | 0.01 to 10 nM |

Same assay, conditions: Hepatitis C virus, Huh-7, read-out: Activity (EC50 class), HCV pseudoparticles (genotype 1a, H77C) in Huh7 cells; EC50 expressed as class A/B

| Structure (SMILES) | EC50 |
| --- | --- |
| CCc1cccc(NC(=O)C(=O)NCC[C@@H](NC(=O)c2ccc(Nc3nc(NC4(c5ccc(Cl)cc5)CC4)nc(OCC(F)(F)F)n3)cc2)C(=O)OC)c1 [Compound 3573] | 0.01 to 10 nM |
| O=C(NCCC(NC(=O)c1ccc(Nc2nc(NC3(c4ccc(Cl)cc4)CC3)nc(OCC(F)(F)F)n2)cc1)C(=O)O)C(=O)Nc1ccc(-n2ccnc2)cc1 (centres unmarked) [Compound 3521] | 0.01 to 10 nM |
| COc1ccc(NC(=O)C(=O)NCC(C)(C)CNC(=O)c2ccc(Nc3nc(NC4(c5ccc(Cl)cc5)CC4)nc(OCC(F)(F)F)n3)cc2)c(OC)n1 [Compound 3077] | 0.01 to 10 nM |
| CC1CC(=O)c2ccc(NC(=O)C(=O)NCC(C)(C)CNC(=O)c3ccc(Nc4nc(NC5(c6ccc(Cl)cc6)CC5)nc(OCC(F)(F)F)n4)cc3)cc2O1 (centres unmarked) [Compound 3336] | 0.01 to 10 nM |
| NC(=O)C(=O)N1CCCC(CNC(=O)c2ccc(Nc3nc(NC4(c5ccc(Cl)cc5)CC4)nc(OCC(F)(F)F)n3)cc2)C1 (centres unmarked) [Compound 3480] | 0.01 to 10 nM |
| COC(=O)[C@H](CNC(=O)C(=O)Nc1ccc(C(=O)N2CCOCC2)cc1)NC(=O)c1ccc(Nc2nc(NC3(c4ccc(Cl)cc4)CC3)nc(OCC(F)(F)F)n2)cc1 [Compound 3099] | 0.01 to 10 nM |
| O=C(NCC[C@H](NC(=O)c1ccc(Nc2nc(NC3(c4ccc(Cl)cc4)CC3)nc(OCC(F)(F)F)n2)cc1)C(=O)O)C(=O)Nc1ccc(Cn2ccnc2)cc1 [Compound 3540] | 10 to 1000 nM |
| Cc1ccn(-c2ccccc2NC(=O)C(=O)NCC(C)(C)CNC(=O)c2ccc(Nc3nc(NC4(c5ccc(Cl)cc5)CC4)nc(OCC(F)(F)F)n3)cc2)n1 [Compound 3260] | 0.01 to 10 nM |
| O=C(NCC[C@H](NC(=O)c1ccc(Nc2nc(NC3(c4ccc(Cl)cc4)CC3)nc(OCC(F)(F)F)n2)cc1)C(=O)O)C(=O)Nc1ccc(OCC(F)(F)F)cc1 [Compound 3226] | 0.01 to 10 nM |
| CN(CCCN(C)C(=O)c1ccc(Nc2nc(NC3(c4ccc(Cl)cc4)CC3)nc(OCC(F)(F)F)n2)cc1)C(=O)C(=O)Nc1ccccc1 [Compound 3428] | 0.01 to 10 nM |
| O=C(NCCNC(=O)c1ccc(Nc2nc(NC3(c4ccc(Cl)cc4)CC3)nc(OCC(F)(F)F)n2)cc1)C(=O)Nc1cccc(F)c1 [Compound 3369] | 0.01 to 10 nM |
| CC(C)(CNC(=O)C(=O)Nc1ccc(C(F)(F)F)cc1C#N)CNC(=O)c1ccc(Nc2nc(NC3(c4ccc(Cl)cc4)CC3)nc(OCC(F)(F)F)n2)cc1 [Compound 3435] | 0.01 to 10 nM |
| COC(=O)[C@H](CNC(=O)C(=O)Nc1ccc(Oc2ccccc2)cc1)NC(=O)c1ccc(Nc2nc(NC3(c4ccc(Cl)cc4)CC3)nc(OCC(F)(F)F)n2)cc1 [Compound 3082] | 0.01 to 10 nM |
